The test system of data set [1] is Rattus norvegicus. Description: Antiallergic activity in iv dosed Sprague-Dawley rat assessed as inhibition of egg albumin-induced passive cutaneous anaphylaxis administered immediately prior to egg albumin challenge measured after 30 mins by Evan blue dye leakage assay relative to disodium cromoglycate. It counts as functional.
The nature of data set [2]: Dissociation constant, pKa of the compound. It counts as physicochemical.
Data set [3] has as its system Rattus norvegicus. Description: Antiallergic activity in po dosed Sprague-Dawley rat assessed as inhibition of egg albumin-induced passive cutaneous anaphylaxis administered 5 mins prior to egg albumin challenge measured after 30 mins by Evan blue dye leakage assay. It counts as functional. Conditions: read-out: ID50 (the source's name).
Data set [4] relates to Rattus norvegicus. The data set can be described thus: Antiallergic activity in Sprague-Dawley rat assessed as inhibition of egg albumin-induced passive cutaneous anaphylaxis up to 20 mg/kg, iv administered immediately prior to egg albumin challenge measured after 30 mins by Evan blue dye leakage assay. Format: functional, organism-based. Set-up: dose 20 mg/kg.

Active and inactive are the calls of the source. No cut-off for these calls is given here.

Regarding `CN(C)c1ccc2occ(-c3nnn[nH]3)c(=O)c2c1`, the “fold change (FC)” value in the data set on Rattus norvegicus [1] was 2.3. On the same count and under the same terms, next, `O=c1c(-c2nnn[nH]2)coc2cc(O)ccc12`: 1.1.

As to `N#Cc1coc2ccccc2c1=O`, the pKa in data set [2] stood at 5.85. Take `O=c1c(-c2nnn[nH]2)coc2ccc(Cl)cc12`: the “fold change (FC)” value in the data set on Rattus norvegicus [1] stood at 4.

As to `CC(C)c1ccc2occ(-c3nnn[nH]3)c(=O)c2c1`, the “fold change (FC)” value in the data set with Rattus norvegicus [1] is reported as 3.4. The ED50 in the data set on Rattus norvegicus [3] came to 17 mg/kg. Consider `Cc1ccc2occ(-c3nnn[nH]3)c(=O)c2c1`, for which, in the data set with Rattus norvegicus [1], the “fold change (FC)” value was 2.4. Moreover, the ED50 with Rattus norvegicus [3] was determined as 10 mg/kg. Turning to `COc1ccc2occ(-c3nnn[nH]3)c(=O)c2c1`, the “fold change (FC)” value in the data set on Rattus norvegicus [1] amounted to 2.2. The ED50 in the data set on Rattus norvegicus [3] is 7 mg/kg.

Regarding `O=c1cc(-c2nnn[nH]2)oc2ccccc12`, in the data set on Rattus norvegicus [1], the “fold change (FC)” value is listed as 1.4. Regarding `CCc1ccc2occ(-c3nnn[nH]3)c(=O)c2c1`, the “fold change (FC)” value in the data set on Rattus norvegicus [1] stood at 4. The ED50 in the data set with Rattus norvegicus [3] was found to be 6.9 mg/kg.

`Cc1oc2ccccc2c(=O)c1Cc1nnn[nH]1`: the inhibition entry in the data set on Rattus norvegicus [4] was “inactive”. Regarding `O=c1c(-c2nnn[nH]2)coc2c1ccc1ccccc12`, the “fold change (FC)” value with Rattus norvegicus [1] stood at 8.3. Also, the ED50 with Rattus norvegicus [3] turned out to be 7.4 mg/kg. Take `Cc1cc(C)c2occ(-c3nnn[nH]3)c(=O)c2c1`: the “fold change (FC)” value in the data set on Rattus norvegicus [1] worked out at 11.6. Further, the ED50 with Rattus norvegicus [3] is 1.25 mg/kg.

With `CCOC(=O)c1ccc2occ(-c3nnn[nH]3)c(=O)c2c1`, the “fold change (FC)” value in the data set with Rattus norvegicus [1] was 2.9. On to `O=c1c(-c2nnn[nH]2)coc2ccccc12`, for which the “fold change (FC)” value in the data set with Rattus norvegicus [1] is listed as 3.5. Moreover, the ED50 in the data set with Rattus norvegicus [3] was 5.3 mg/kg. In the case of `O=C(Cc1nnn[nH]1)c1ccccc1O`, the “fold change (FC)” value with Rattus norvegicus [1] is recorded as 0.35. Same read-out and setting: next, `Cc1oc2ccccc2c(=O)c1-c1nnn[nH]1`: 0.1; `CCCc1ccc2occ(-c3nnn[nH]3)c(=O)c2c1`: 3.4; `O=c1c(/C=C/c2nnn[nH]2)coc2ccccc12`: 0.3.

Take `CC(C)(C)n1nnc(-c2coc3ccccc3c2=O)n1`: the inhibition entry in the data set on Rattus norvegicus [4] is “inactive”. Consider `O=c1c(-c2nnn[nH]2)coc2cc(O)c(O)cc12`, for which the “fold change (FC)” value in the data set on Rattus norvegicus [1] was 1.8. Consider `O=c1c(CCc2nnn[nH]2)coc2ccccc12`, for which, in the data set with Rattus norvegicus [1], the “fold change (FC)” value worked out at 0.07. Regarding `O=c1c(-c2nnn[nH]2)coc2ccc3ccccc3c12`, the “fold change (FC)” value with Rattus norvegicus [1] is on record as 5. In the data set with Rattus norvegicus [3], the ED50 is 8.5 mg/kg. For the compound `CCCCc1ccc2occ(/C=C/c3nnn[nH]3)c(=O)c2c1`, the “fold change (FC)” value in the data set on Rattus norvegicus [1] is listed as 0.07. On to `O=c1c(-c2nnn[nH]2)coc2ccc(O)cc12`, for which, in the data set on Rattus norvegicus [1], the “fold change (FC)” value turned out to be 4.5. On to `O=C([O-])c1cc(=O)c2c(OCC(O)COc3cccc4oc(C(=O)[O-])cc(=O)c34)cccc2o1.[Na+].[Na+]` [CROMOLYN SODIUM], for which the ED50 with Rattus norvegicus [3] was > 100 mg/kg. With `CCCCCCc1ccc2occ(-c3nnn[nH]3)c(=O)c2c1`, in the data set with Rattus norvegicus [1], the “fold change (FC)” value is reported as 0.6. With `CCCCc1ccc2occ(-c3nnn[nH]3)c(=O)c2c1`, the “fold change (FC)” value with Rattus norvegicus [1] was 1.8.

In data set [2], `O=C(O)c1coc2ccccc2c1=O` registered a pKa of 8.85.

Consider `O=c1c(-c2nnn[nH]2)coc2ccc(C3CCCCC3)cc12`, for which the “fold change (FC)” value with Rattus norvegicus [1] was 0.5. As for `O=c1c(-c2nnn[nH]2)coc2ccc([N+](=O)[O-])cc12`, in the data set on Rattus norvegicus [1], the “fold change (FC)” value amounted to 4.

With `Cc1nnc(-c2coc3ccccc3c2=O)o1`, the inhibition entry in the data set on Rattus norvegicus [4] was “inactive”. Turning to `CCCCOc1ccc2c(=O)c(-c3nnn[nH]3)coc2c1`, the “fold change (FC)” value in the data set with Rattus norvegicus [1] is given as 0.9.

Usually pKa stands for the negative logarithm of the acid dissociation constant. A high value points to a group that holds its proton tightly.

(Values after ChEMBL document CHEMBL3272150, “Studies on antianaphylactic agents. 5. Synthesis of 3-(1H-tetrazol-5-yl)chromones, a new series of antiallergic substances” (J Med Chem, 1977).)
